Positions count from the first letter of the chain named.
Experiments:
Assay type in all cases: cell-based
[1] = target: T1, ABCG2 (Homo sapiens, UniProt Q9UNQ0); assay: Mitoxantrone (MX) accumulation by flow cytometry, ABCG2-expressing PLB and A431 cells; design: expressed in transfected cells; host or cells: PLB-985 and A431 cells (retroviral transduction); details: control and ABCG2 expressing PLB and A431 cells, 1 μM MX, 60 minutes
T1 sequence (Q9UNQ0 1-655): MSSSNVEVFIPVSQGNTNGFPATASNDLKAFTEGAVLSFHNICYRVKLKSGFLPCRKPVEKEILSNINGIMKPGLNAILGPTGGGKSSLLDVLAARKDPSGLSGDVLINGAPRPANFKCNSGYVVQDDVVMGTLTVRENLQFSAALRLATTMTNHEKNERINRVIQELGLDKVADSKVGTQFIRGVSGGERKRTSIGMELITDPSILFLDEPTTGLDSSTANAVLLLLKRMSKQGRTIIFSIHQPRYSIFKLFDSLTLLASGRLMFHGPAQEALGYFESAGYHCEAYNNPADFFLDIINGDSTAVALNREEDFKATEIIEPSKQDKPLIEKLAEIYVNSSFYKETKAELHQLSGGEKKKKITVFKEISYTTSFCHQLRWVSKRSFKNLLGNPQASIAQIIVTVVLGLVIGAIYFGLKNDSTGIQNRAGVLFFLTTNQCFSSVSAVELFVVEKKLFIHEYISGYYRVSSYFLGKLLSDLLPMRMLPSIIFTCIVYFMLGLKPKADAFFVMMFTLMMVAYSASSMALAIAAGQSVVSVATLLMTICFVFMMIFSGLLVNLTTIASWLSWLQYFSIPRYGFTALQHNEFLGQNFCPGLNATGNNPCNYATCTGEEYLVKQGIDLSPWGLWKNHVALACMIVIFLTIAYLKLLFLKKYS

[2] = tested on: PLB, HEK or A431 cells; assay: Cell viability assay after PGD loading; details: PGD loading 30 min at 37° C.; PLB cells counted for 9 days, HEK or A431 cells cultured 72 hours
Protocol: Control and ABCG2 expressing PLB-985 cells (1×10^6) were pre-incubated in the uptake buffer for 10 minutes at 37° C., then incubated with or without 0.5 μM PGD for 30 minutes at 37° C. The PGD-treated cells were sorted based on PG fluorescence by FACS Aria III Cell sorter (BD Bioscience, San Jose, CA, with 488 nm blue laser excitation and 530/30 nm emission). The sorted cells were suspended in 3 mL RMPI media in 6 well plates and live cell number was measured each day, dead cells were excluded by TO-PRO™-3 Iodide.
In order to estimate the EC50 values, HEK or A431 cells were treated with […] for 30 min at 37° C. in the EDTA-DPBS buffer, then washed and cultured in 2 mL DMEM media in 12 well plates for 72 hours. […]
In the first set of these experiments (FIG. 7, Panel A) we used control and ABCG2 expressing PLB cells, incubated in the PGD loading media with or without 0.5 μM PGD for 30 minutes at 37° C. The PGD-treated cells were then sorted based on PG fluorescence by flow cytometry, and the cells were resuspended in RPMI media. […]
In the second set of experiments HEK or A431 cells were treated with the indicated concentrations of PGD for 30 min at 37° C. in the loading media, then washed and cultured in normal cell culturing media for 72 hours. Live cell number was determined by flow cytometry, dead cells excluded by TO-PRO-3 staining (see Methods). […]

[3] = target: T2, ABCC1 (Homo sapiens, UniProt P33527); assay: PhenGreen (PG) accumulation by flow cytometry, ABCC1-expressing HL-60 and HEK cells
T2 construct: expressed in transfected cells; host or cells: HL-60 and HEK-293 cells (retroviral transduction)
T2 sequence (P33527 whole entry): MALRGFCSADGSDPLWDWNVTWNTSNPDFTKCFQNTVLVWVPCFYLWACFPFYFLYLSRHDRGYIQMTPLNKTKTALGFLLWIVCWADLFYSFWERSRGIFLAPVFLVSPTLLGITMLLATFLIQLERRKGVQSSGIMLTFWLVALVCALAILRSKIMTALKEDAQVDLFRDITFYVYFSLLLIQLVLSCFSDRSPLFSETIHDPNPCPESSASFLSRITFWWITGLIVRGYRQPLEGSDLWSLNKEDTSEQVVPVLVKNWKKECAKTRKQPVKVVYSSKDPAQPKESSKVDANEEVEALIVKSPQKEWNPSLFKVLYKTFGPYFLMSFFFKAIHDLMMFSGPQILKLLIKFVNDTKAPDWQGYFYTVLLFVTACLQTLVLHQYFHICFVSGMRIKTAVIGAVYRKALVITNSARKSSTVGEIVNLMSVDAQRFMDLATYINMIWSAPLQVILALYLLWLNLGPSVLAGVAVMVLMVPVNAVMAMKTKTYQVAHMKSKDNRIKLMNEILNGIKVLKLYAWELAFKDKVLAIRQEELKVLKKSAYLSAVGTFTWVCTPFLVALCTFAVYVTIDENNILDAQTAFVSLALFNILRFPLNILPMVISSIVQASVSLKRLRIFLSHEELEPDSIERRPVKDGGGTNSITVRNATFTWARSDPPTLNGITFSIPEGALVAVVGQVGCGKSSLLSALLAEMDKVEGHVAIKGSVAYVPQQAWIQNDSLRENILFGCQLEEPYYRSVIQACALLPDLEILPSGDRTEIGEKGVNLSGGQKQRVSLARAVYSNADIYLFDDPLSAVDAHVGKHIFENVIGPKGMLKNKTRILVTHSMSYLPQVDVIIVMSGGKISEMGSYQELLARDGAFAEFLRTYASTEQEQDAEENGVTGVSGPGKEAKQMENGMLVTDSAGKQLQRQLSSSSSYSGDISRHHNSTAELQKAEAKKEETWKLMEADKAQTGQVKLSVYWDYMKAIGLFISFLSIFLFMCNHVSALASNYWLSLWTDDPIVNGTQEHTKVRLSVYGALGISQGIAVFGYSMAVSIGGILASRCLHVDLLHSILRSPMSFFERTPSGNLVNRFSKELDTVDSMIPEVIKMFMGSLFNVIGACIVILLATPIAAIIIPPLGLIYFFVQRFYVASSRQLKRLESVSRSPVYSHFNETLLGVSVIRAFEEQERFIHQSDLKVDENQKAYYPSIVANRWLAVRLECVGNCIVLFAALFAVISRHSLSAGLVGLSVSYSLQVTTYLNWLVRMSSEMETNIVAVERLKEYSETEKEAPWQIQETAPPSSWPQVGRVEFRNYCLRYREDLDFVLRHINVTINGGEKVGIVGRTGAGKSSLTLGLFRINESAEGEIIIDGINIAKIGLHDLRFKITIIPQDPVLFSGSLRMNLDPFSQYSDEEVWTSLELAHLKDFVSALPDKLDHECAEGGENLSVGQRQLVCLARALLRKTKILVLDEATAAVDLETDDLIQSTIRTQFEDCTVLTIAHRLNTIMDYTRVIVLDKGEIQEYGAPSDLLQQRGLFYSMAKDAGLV
Protocol: (§1) In order to follow the time-dependent accumulation of PG, 5×10^5 cells were washed twice with 1 mL DPBS (1 g/L D-glucose with phosphate buffered saline), then pre-incubated in the uptake buffer (1 mM EDTA in DPBS) for 10 minutes at 37° C. Thereafter the cells were incubated in the uptake buffer with various concentrations of PhenGreen SK diacetate (PGD), with or without transporter inhibitor, at 37° C., for 1-60 minutes. Dye uptake was stopped by the addition of 150 μl ice-cold EDTA-DPBS, the cells were kept on ice until the measurements (see FIG. 12.). […]
(§2) The cells (5×10^5) were incubated with 0.5 μM PGD or 1 μM (Mx) with or without inhibitors, for 30 (PGD) or 60 (Mx) minutes at 37° C. The reaction was stopped by the addition of ice-cold EDTA-DPBS and fluorescence was measured as described above.
(§3) All experiments were performed at least three times. […] Results were expressed as median±standard deviation. The MDR activity factor % (MAF %—see refs [Homolya L et al. Br J Cancer. 1996; Holló Z et al. Anticancer Res. 1998; 18: 2981-7., Sarkadi et al. U.S. Pat. No. 5,872,014 1999]) was calculated as follows: MAF %=(((MFIinh−MFI0)/MFIinh)×100), wherein MFIinh and MFI0 are the median fluorescence intensity (MFI) with (inh) or without (0) inhibitor. […]

[4] = tested on: human peripheral blood mononuclear cells (PBMCs); assay: Functional test of ABCG2, ABCB1 or ABCC1 transporter function in PBMCs
Protocol: Freshly drawn venous blood samples were collected from healthy donors into EDTA coated tubes. Peripheral blood mononuclear cells (PBMCs) were isolated by Ficoll-histopaque density gradient centrifugation. The PBMCs were washed twice with 1 mL EDTA-DPBS uptake buffer (1 mM EDTA and 1 g/L D-glucose with phosphate buffered saline). The various cell populations can be stained with cluster of differentiation markers (CD markers), conjugated by e.g. APC, APC-Cy7, Pacific blue, or other fluorescent marker. After CD labeling the cells were incubated in the uptake buffer with 1 μM PhenGreen SK diacetate (PGD), or 0.25 μM Calcein-AM (CaAM) or 1 μM mitoxantrone (Mx), with or without selective transporter inhibitors, for 30 minutes (PGD and CaAM) or 60 minutes (Mx) at 37° C. […] The reaction was stopped by the addition of ice-cold EDTA-DPBS and fluorescence was measured as described above.
[…] cell populations, i.e. granulocytes, monocytes and lymphocytes have been visualized by flow cytometry as described in the Materials and Methods chapter (Panel A). […] MDR activity factors were calculated as described above based on the measurements of the accumulation of the three fluorescent dyes, with or without inhibitors, in the respective leukocyte populations (Panel C).

[5] = target: T3, ABCB1 (Homo sapiens, UniProt P08183); assay: PhenGreen (PG) accumulation by flow cytometry, ABCB1-expressing PLB and A431 cells
T3 construct: expressed in transfected cells; host or cells: PLB-985 and A431 cells (retroviral transduction)
T3 sequence (P08183 whole entry): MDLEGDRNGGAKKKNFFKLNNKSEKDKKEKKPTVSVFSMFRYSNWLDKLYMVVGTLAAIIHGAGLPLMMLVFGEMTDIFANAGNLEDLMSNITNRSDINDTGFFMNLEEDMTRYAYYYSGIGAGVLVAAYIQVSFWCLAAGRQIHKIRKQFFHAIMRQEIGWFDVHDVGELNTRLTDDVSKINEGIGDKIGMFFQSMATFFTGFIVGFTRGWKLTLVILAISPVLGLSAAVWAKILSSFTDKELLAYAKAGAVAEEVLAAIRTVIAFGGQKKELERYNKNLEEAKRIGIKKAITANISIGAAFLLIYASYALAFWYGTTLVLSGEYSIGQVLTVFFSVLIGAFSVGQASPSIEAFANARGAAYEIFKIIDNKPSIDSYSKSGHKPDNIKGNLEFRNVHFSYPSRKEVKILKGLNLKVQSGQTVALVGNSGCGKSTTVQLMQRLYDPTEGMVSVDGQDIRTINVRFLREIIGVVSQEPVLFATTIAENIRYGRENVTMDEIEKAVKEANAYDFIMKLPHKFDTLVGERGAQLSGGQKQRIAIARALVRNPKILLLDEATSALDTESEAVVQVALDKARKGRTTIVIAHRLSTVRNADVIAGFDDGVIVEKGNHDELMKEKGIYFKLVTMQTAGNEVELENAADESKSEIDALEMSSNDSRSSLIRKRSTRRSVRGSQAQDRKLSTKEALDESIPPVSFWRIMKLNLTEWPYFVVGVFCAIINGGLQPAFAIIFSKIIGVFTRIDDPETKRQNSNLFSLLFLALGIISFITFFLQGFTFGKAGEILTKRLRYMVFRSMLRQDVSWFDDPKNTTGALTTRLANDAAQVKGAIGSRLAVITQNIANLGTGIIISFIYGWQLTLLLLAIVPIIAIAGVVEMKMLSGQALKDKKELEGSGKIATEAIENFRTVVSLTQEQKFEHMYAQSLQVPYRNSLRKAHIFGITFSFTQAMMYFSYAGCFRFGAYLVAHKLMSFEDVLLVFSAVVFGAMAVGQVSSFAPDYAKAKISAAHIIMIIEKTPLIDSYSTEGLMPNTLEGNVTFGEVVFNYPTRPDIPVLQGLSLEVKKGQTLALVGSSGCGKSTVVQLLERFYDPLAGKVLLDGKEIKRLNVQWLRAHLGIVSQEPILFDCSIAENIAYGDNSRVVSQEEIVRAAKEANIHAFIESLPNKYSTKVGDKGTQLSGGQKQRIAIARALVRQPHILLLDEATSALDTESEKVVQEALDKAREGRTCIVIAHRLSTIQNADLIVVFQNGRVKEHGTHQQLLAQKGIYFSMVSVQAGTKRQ
Protocol: as §1, §2, §3

[6] = target: T1, ABCG2; assay: PhenGreen (PG) accumulation by flow cytometry, ABCG2-expressing PLB and A431 cells; design: expressed in transfected cells; host or cells: PLB-985 and A431 cells (retroviral transduction)
Protocol: In order to follow the time-dependent accumulation of PG, 5×10^5 cells were washed twice with 1 mL DPBS (1 g/L D-glucose with phosphate buffered saline), then pre-incubated in the uptake buffer (1 mM EDTA in DPBS) for 10 minutes at 37° C. Thereafter the cells were incubated in the uptake buffer with various concentrations of PhenGreen SK diacetate (PGD), with or without transporter inhibitor, at 37° C., for 1-60 minutes. Dye uptake was stopped by the addition of 150 μl ice-cold EDTA-DPBS, the cells were kept on ice until the measurements (see FIG. 12.). For assessing the PGD concentration dependence of PG accumulation, 5×10^5 PLB-985 or A431 cells, expressing the ABCB1 or ABCG2 transporters, or HL-60 and HEK-293 cells, expressing ABCC1, were washed twice with 1 mL DPBS, then pre-incubated in EDTA-DPBS medium for 10 minutes at room temperature. The cells were incubated in EDTA-DPBS with 0.1-5 μM of PGD at 37° C. for 30 minutes. Dye uptake was stopped by the addition of 150 μl ice-cold EDTA-DPBS. The cells were kept on ice until the measurement.
as §2
All experiments were performed at least three times. Data analysis was performed using FACSDiva v6.1.3 Software (BD Bioscience, San Jose, CA), flow cytometry figures were prepared with the Attune Acoustic Focusing Cytometer v1.25 Software (Applied Biosystems, Life Technologies, Carlsbad, CA, USA). Results were expressed as median±standard deviation. The MDR activity factor % (MAF %—see refs [Homolya L et al. Br J Cancer. 1996; Holló Z et al. Anticancer Res. 1998; 18: 2981-7., Sarkadi et al. U.S. Pat. No. 5,872,014 1999]) was calculated as follows: MAF %=(((MFIinh−MFI0)/MFIinh)×100), wherein MFIinh and MFI0 are the median fluorescence intensity (MFI) with (inh) or without (0) inhibitor. The EC50 analysis was carried out using the Origin 8.6. software.

[7] = target: T4, ABCG2 (Homo sapiens, UniProt Q9UNQ0, K86M); assay: as above; details: PLB cells expressing ABCG2-K86M
T4 construct: expressed in transfected cells; host or cells: PLB-985 and A431 cells (retroviral transduction)
T4 sequence (Q9UNQ0 1-655 K86M): T1 sequence (Q9UNQ0 1-655) with K86M
Protocol: as §1, §2, §3

[8] = target: T1, ABCG2; assay: PG accumulation examined by confocal microscopy in PLB and PLB-ABCG2 cells; design: expressed in transfected cells; host or cells: PLB-985 cells (retroviral transduction); details: PLB-ABCG2 cells, 0.5 μM PGD, 30 minutes, no inhibitor
Protocol: For confocal microscopy the cells (5×10^5) were washed twice with 1 mL DPBS, then pre-incubated with 1 μg/mL Alexa Fluor-647 conjugated wheat-germ agglutinin (WGA-A647) in uptake buffer for 5 minutes at room temperature. Thereafter the cells were incubated with 0.5 μM PGD with or without transporter inhibitors for 30 minutes at 37° C. PGD uptake was stopped by washing the cells with 1 mL DPBS. The images were acquired by a Zeiss LSCM 710 microscope using a 63×NA=1.4 Plan Apo objective. Images were captured and analyzed by Zen2 (Blue edition) Software.
In order to examine the wider applicability of the PGD-based assay for functional ABCG2 transporter studies, we examined PG accumulation in control PLB cells and in PLB cells expressing ABCG2, by using fluorescence (confocal) microscopy.
In these experiments, in order to label the plasma membrane compartment of the cells, we also included the staining of live PLB cells with a fluorescent anti-WGA antibody.

## O=C1c2c(O)ccc(O)c2C(=O)c2c(NCCNCCO)ccc(NCCNCCO)c21 [MX, mitoxantrone]
[1]
  MDR activity factor (MAF) based on MX extrusion: essentially similar results as obtained by using PG accumulation

## CC(=O)Oc1cc2c(cc1Cl)C1(OC(=O)c3cc(C(=O)Nc4cc5cccnc5c5ncccc45)ccc31)c1cc(Cl)c(OC(C)=O)cc1O2 [PGD, PhenGreen SK diacetate]
[2]
  effect of PG accumulation on cell growth: no measurable effect on the growth of the cells
[3]; ABCC1 expressing HL-60 cells
  applicability for calculating the MDR activity factor, compared with mitoxantrone: similarly or better applicable than MX
[3]; HL-60 and HEK cells, 0.1-5 μM PGD, EDTA-DPBS, 30 minutes at 37° C.
  PG accumulation in ABCC1 expressing cells versus control parental cells: significantly lower levels of PG than their control parental cells
[4]; granulocytes, monocytes and lymphocytes, 1 μM PGD, 30 minutes at 37° C.
  transporter substrate activity in mononuclear cell populations: active substrate in each cell type
[4]; monocytes, ABCG2, ABCB1 and ABCC1 with selective inhibitors
  MAF factor compared with other dyes: higher MAF factor than Calcein AM and mitoxantrone for each of the transporters
[5]; ABCB1 expressing PLB cells
  applicability for calculating the MDR activity factor, compared with mitoxantrone: similarly or better applicable than MX
[5]; PLB and A431 cells, 0.1-5 μM PGD, EDTA-DPBS, 30 minutes at 37° C.
  PG accumulation in ABCB1 expressing cells versus control parental cells: significantly lower levels of PG than their control parental cells
[6]; PLB cells, 0.5 to 2.5 μM PGD in the media, 37° C.
  time in which the increase in cellular PG fluorescence saturated: less than 30 minutes
[6]; PLB vs PLB-ABCG2 cells, low (below 1 μM) PGD, 30 minutes at 37° C., flow cytometry
  effect of ABCG2 protein on accumulated PG fluorescence: major difference in the amount of the accumulated PG fluorescence

## PhenGreen SK [PG]
[7]
  effect of non-functional catalytic mutant ABCG2-K86M on PG accumulation: no effect on PG accumulation
[8]
  cytoplasmic PG accumulation (confocal microscopy): practically did not accumulate PG
[6]; PLB cells expressing wild-type ABCG2
  MDR activity factor (MAF) from PG accumulation in absence or presence of Ko143: high activity level

Reference: patent publication US11982675B2, “Method of assessing ABC transporter activity using fluorescent dye accumulation assay” (CELLPHARMA KFT., priority 2017, dated 2024)
